Experimental data published in BindingDB's records for doi:10.1021/jm980334n (University of New Mexico School of Medicine, 1998).

These compounds were tested against L-lactate dehydrogenase (Plasmodium falciparum) (UniProt Q27743) (assay: inhibitory activity against Plasmodium falciparum LDH (pLDH)).

Compound | Ki [µM]
Cc1cc2c(C(=O)O)c(O)c(O)c(C(C)C)c2cc1C [2,3-Dihydroxy-4-isopropyl-6,7-dimethyl-naphthalene-1-carboxylic acid] | 1
Cc1cc2c(C)c(O)c(O)c(C(=O)O)c2cc1Cc1ccccc1 [7-Benzyl-2,3-dihydroxy-4,6-dimethyl-naphthalene-1-carboxylic acid] | 8
Cc1cc2c(C)c(O)c(O)c(C(=O)O)c2cc1C [2,3-Dihydroxy-4,6,7-trimethyl-naphthalene-1-carboxylic acid] | 13
Cc1cc2c(C(C)C)c(O)c(O)c(C(=O)O)c2cc1Cc1ccccc1 [7-Benzyl-2,3-dihydroxy-4-isopropyl-6-methyl-naphthalene-1-carboxylic acid] | 0.7
Cc1cc2c(C(C)C)c(O)c(O)c(C(=O)O)c2cc1Cc1ccc(C(F)(F)F)cc1 [2,3-Dihydroxy-4-isopropyl-6-methyl-7-(4-trifluoromethyl-benzyl)-naphthalene-1-carboxylic acid] | 0.2

Further lines, results first:

Ki [µM] | Compound
22 | Cc1ccc2c(C(=O)O)c(O)c(O)c(C)c2c1 [2,3-Dihydroxy-4,6-dimethyl-naphthalene-1-carboxylic acid]
2 | Cc1ccc2c(C(=O)O)c(O)c(O)c(C(C)C)c2c1 [2,3-Dihydroxy-4-isopropyl-6-methyl-naphthalene-1-carboxylic acid]
6 | CCCc1c(O)c(O)c(C(=O)O)c2ccc(C)cc12 [2,3-Dihydroxy-6-methyl-4-propyl-naphthalene-1-carboxylic acid]
